# From patent publication US8652525B2, “NSAID delivery from polyarylates” (TYRX, Inc., priority 2008, dated 2014)
# Columns and labels:
# [1] = p(10% DT, DTE succinate) solvent cast film, 20% loading
# Procedure: 1 ml of the buffer was withdrawn periodically and run through the HPLC system described in Example 1.
# Naproxen was formulated at 20% loading in a matrix of p(10% DT, DTE succinate) by solvent casting from methylene chloride and assessed for long-term release.
# post-operative pain = conditions: after cesarean delivery; comparator ropivacaine continuous wound infiltration with intravenous (iv) diclofenac; cited from earlier work
# [2] = In vitro release profile of ketoprofen-loaded microparticles using dialysis tubes; assay type: physicochemical; conditions: p(10% DT, DTE succinate) microparticles 125-180 μm, 40% loading
# Procedure: The p(10% DT, DTE succinate) was dried at 40° C. for 3 days and analyzed. 4.8 g of polymer was placed in a plastic beaker and topped with an excess of ethanol. The polymer was allowed to stand in ethanol at 50° C. for 2-3 hours. […] After overnight drying, the polymer/drug mixture was ground using a coffee grinder (overhead design). First, the polymer/drug mixture was cooled in liquid nitrogen. Then the polymer-drug mass was mixed with ground dry ice, added to the container of the grinder and ground at the highest speed for at least 5 min. The whole mixture of dry ice plus polymer/drug powder was transferred into a beaker, covered with Kimwipes™ and placed into a vacuum oven at 40° C. to dry overnight.
# The in vitro release profile of the microparticles was determined using dialysis tubes.
# [3] = given orally for systemic distribution; cited from earlier work
# [4] = Ketoprofen release studies from polyarylate films and microparticles in phosphate buffered saline, HPLC; conditions: for ketoprofen release rate: p(10% DT, DTE succinate) film; for ketoprofen released per day: p(10% DT, DTE succinate) solvent cast film
# [5] = p(10% DT, DTE adipate), PBS pH 7.4, 37° C.
# [6] = p(10% DT, DTE succinate) melt processed, compression molded film
smiles,measurement,setting,value
COc1ccc2cc([C@H](C)C(=O)O)ccc2c1 [Naproxen],drug released per day,[1],1 % per day
same,release kinetics,[1],zero order kinetics
same,time until release is complete,[1],about 3 months
O=C(O)Cc1ccccc1Nc1c(Cl)cccc1Cl [diclofenac],efficacy of continuous wound infiltration versus comparator,post-operative pain,more effective
CC(C(=O)O)c1cccc(C(=O)c2ccccc2)c1 (centres unmarked) [ketoprofen],ketoprofen release after 6 days,[2],100%
same,ketoprofen released within 24 hours,[2],About 50%
same,effective plasma concentration range,[3],"1,000-4,000 ng/mL"
same,ketoprofen release mechanism (shape of the release curve),"[4]; DTO polymers, PBS pH 7.4, 37° C.",diffusion controlled
same,ketoprofen release kinetics,"[4]; microparticles milled from compression molded p(10% DT, DTE succinate) film, all sizes",fairly linear release
same,time until ketoprofen release is completed,"[4]; microparticles milled from compression molded p(10% DT, DTE succinate) film, largest particles (>500 microns)",about 60 days
same,time until ketoprofen release is completed,"[4]; microparticles milled from compression molded p(10% DT, DTE succinate) film, smallest particles (212 to 425 microns)",about 40 days
same,ketoprofen release kinetics,"[4]; p(10% DT, DTE adipate), after initial burst, PBS pH 7.4, 37° C.",approximately zero order kinetics
same,duration of ketoprofen release,[4]; [5],2 weeks
same,initial burst of ketoprofen release,[4]; [5],20%
same,ketoprofen release rate,"[4]; HMW polymer (94,000)",about 3 % per day
same,ketoprofen release rate,"[4]; LMW polymer (67,800)",about 5 % per day
same,ketoprofen release kinetics,[4]; [6],zero order kinetics
same,rate of ketoprofen release,[4]; [6],1.3 % per day
same,ketoprofen released per day,"[4]; 10% loading, PBS pH 7.4, 37° C.",about 2 % per day
same,ketoprofen released per day,"[4]; 20% loading, PBS pH 7.4, 37° C.",5 % per day
same,ketoprofen released per day,"[4]; 30% loading, PBS pH 7.4, 37° C.",6 % per day
same,ketoprofen released per day,"[4]; 40% loading, PBS pH 7.4, 37° C.",about 8 % per day
same,ketoprofen release kinetics,"[4]; p(10% DT, DTE succinate) solvent cast films, all four loadings 10%, 20%, 30%, 40%",zero order kinetics
